In patent US20260232682A1, “GSPT1 DEGRADER COMPOUNDS” (Captor Therapeutics S.A., priority 2023, published 2026) one finds activation and Ki data, which are given here for twelve molecules.

Assay [1] has as its target T1, [IKZF1 ZF2]-[compound]-[CRBN/DDB1] ternary complex (Homo sapiens, UniProt Q13422+Q96SW2).
T1 construct: IKZF1 ZF2
Put plainly: AlphaLISA assay for off-target recruitment detection, IKZF1 ZF2. The note with it: 1 μM compound; normalized to Lenalidomide; read-out: Normalized ternary complex response, IKZF1 ZF2. It counts as binding. How it is done: (§1) The ability of the molecular glue compounds of the invention to mediate the proximity of CRBN with its known neo-substrates (shown in Table 3) was assessed using AlphaLISA to detect the formation of a [neo-substrate]-[compound of formula (I)]-[CRBN/DDB1] ternary complex.
(§2) Two types of protein solution were prepared: • neo-substrate, 40 μg/ml AlphaScreen Donor Beads (Table 3) in PBS (10 mM phosphate buffer, 137 mM NaCL, 2.7 mM KCl, pH 7.4) buffer supplemented with Tween-20 (Table 3) and 1 mM DTT, • 200 nM 6×His-CRBN/DDB1, 40 μg/ml AlphaLISA Anti-6×His Acceptor beads in PBS buffer with Tween-20 (Table 3) and 1 mM DTT.
(§3) The prepared solutions were incubated at room temperature for 30 min and then the solution containing the donor beads was mixed with the solution containing the acceptor beads.
(§4) The tested compounds were dispensed onto a white 384-well AlphaPlate 384 SW. DMSO was backfilled to all wells, resulting in a final DMSO content of 2%. Wells containing only DMSO served as background. Next, 10 μl of solution with donor and acceptor beads was added to the wells.
(§5) The plate was sealed with transparent film and shaken using a VibroTurbulator for 60 sec at room temperature, level 3. The plate was then spun down shortly (10 sec, 1000 rcf, room temperature) and incubated at 25° C. for 30 min.
(§6) The read-out was performed with PerkinElmer Enspire Multimode Plate Reader (method for AlphaLISA 384-well low volume, Filterset: λexc=680 nm, λem=615 nm).
(§7) The results were analyzed as follows: • 1) an average of luminescence for background signal was calculated and used as a negative control; • 2) an average of the maximum measured luminescence for reference compound (Table 3) was calculated and used as an internal positive control; • 3) raw luminescence values were normalized against positive and negative controls; • 4) Normalized responses to reference molecular glue were determined.
A general note: In Alpha technology, singlet oxygen from a donor bead excites a nearby acceptor bead.

Assay [2] has as its target T2, [IKZF2 ZF2]-[compound]-[CRBN/DDB1] ternary complex (Homo sapiens, UniProt Q96SW2+Q9UKS7).
T2 construct: IKZF2 ZF2
Put plainly: AlphaLISA assay for off-target recruitment detection, IKZF2 ZF2. It counts as binding. The note with it: 1 μM compound; normalized to Helios modulator; read-out: Normalized ternary complex response, IKZF2 ZF2. How it is done:
as §1, §2, §3, §4, §5, §6, §7

Assay [3] addresses CRBN/DDB1 protein complex (Homo sapiens, UniProt Q96SW2). Briefly: CRBN displacement TR-FRET assay. The note with it: Thalidomide-Red tracer, 6×His-CRBN/DDB1; read-out: CRBN binding Ki. Here is the method: CRBN/DDB1 protein complex was mixed with Thalidomide-Red and a compound to be tested (the “test compound”). The test solution contained PPI Europium detection buffer, 1 mM DTT, 6.8 nM Thalidomide-Red (the tracer), 5 nM 6×His-CRBN/DDB1 protein, 0.5 nM Anti-6× His-Eu cryptate, 1% DMSO. The test solution was added to a 384-well assay plate.
The plate was spun-down (1 min, 1000 rpm, 22° C.) and then shaken using a VibroTurbulator for 30 sec at room temperature (20-25° C.), with the frequency set to level 10. The assay plate with protein and the tracer was incubated for 180 min at room temperature (20-25° C.) prior to read-out with a plate reader. The read-out was performed with plate reader (Pherastar, BMG Labtech) in time resolved fluorescence mode. Filter settings: TR 337 665 620.
The CRBN displacement TR-FRET experiment was carried out with various concentrations of the test compounds in order to measure Ki values.
The Ki values of competitive inhibitors were calculated using the equation based on the IC50 values of relationship between compound concentration and measured […], the Kd value of the Thalidomide-Red and CRBN/DDB1 complex, and the concentrations of the protein and the tracer in the displacement assay (as described by Cheng and Prusoff, Biochem Pharmacol 1973; 22:3099-3108).
On the technique in general: Time-resolved FRET reads energy transfer from a long-lived donor to a nearby acceptor.

Assay [4] addresses T3, [SALL4 ZF2]-[compound]-[CRBN/DDB1] ternary complex (Homo sapiens, UniProt Q96SW2+Q9UJQ4).
T3 construct: SALL4 ZF2
Briefly: AlphaLISA assay for off-target recruitment detection, SALL4 ZF2. It counts as binding. Particulars: 1 μM compound; normalized to Lenalidomide; read-out: Normalized ternary complex response, SALL4 ZF2. How it is done:
as §1, §2, §3, §4, §5, §6, §7

Assay [5] concerns the target [GSPT1]-[compound of formula (I)]-[CRBN/DDB1] complex (Homo sapiens, UniProt P15170+Q96SW2). Briefly: AlphaLISA ternary complex formation assay (GSPT1). It counts as binding. The note with it: 0.5 h; 1 μM compound; normalized to reference compound CC-885; read-out: Normalized AlphaLISA ternary complex average signal at 1 μM molecule. How it is done: The effect of the molecular glue compounds of the invention on the formation of a ternary complex composed of [GSPT1]-[compound of formula (I)]-[CRBN/DDB1] was investigated with two methods: AlphaLISA dose response assay or HTRF ternary complex assay.
Two types of protein solution were prepared: • 200 nM biotinylated GSPT1 (Table 3), 40 μg/ml AlphaScreen Streptavidin-coated Donor Beads in HBS (10 mM HEPES, 150 mM NaCL, pH 7.4) buffer with 0.1% Tween-20 and 1 mM DTT, • 200 nM 6×His-CRBN/DDB1, 40 μg/ml AlphaLISA Anti-6×His Acceptor beads in HBS buffer with 0.1% Tween-20 and 1 mM DTT.
as §3, §4, §5, §6
The results were analyzed as follows: • 1) an average of luminescence for background signal was calculated and used as a negative control; • 2) average of the maximum measured luminescence for reference compound (structure shown in Table 3 below) was calculated and used as an internal positive control; • 3) raw luminescence values were normalized against positive and negative controls; • 4) Normalized responses to positive control were determined.

For assay [6], the target named is [CK1α]-[compound]-[CRBN/DDB1] ternary complex (Homo sapiens, UniProt P48729+Q96SW2). Put plainly: AlphaLISA assay for off-target recruitment detection, CK1α. It counts as binding. Particulars: 1 μM compound; normalized to FPFT-2216; read-out: Normalized ternary complex response, CK1α. Here is the method:
as §1, §2, §3, §4, §5, §6, §7

pKi: −log10 of the molar value.

Sequence of [CK1α]-[compound]-[CRBN/DDB1] ternary complex (P48729 whole entry): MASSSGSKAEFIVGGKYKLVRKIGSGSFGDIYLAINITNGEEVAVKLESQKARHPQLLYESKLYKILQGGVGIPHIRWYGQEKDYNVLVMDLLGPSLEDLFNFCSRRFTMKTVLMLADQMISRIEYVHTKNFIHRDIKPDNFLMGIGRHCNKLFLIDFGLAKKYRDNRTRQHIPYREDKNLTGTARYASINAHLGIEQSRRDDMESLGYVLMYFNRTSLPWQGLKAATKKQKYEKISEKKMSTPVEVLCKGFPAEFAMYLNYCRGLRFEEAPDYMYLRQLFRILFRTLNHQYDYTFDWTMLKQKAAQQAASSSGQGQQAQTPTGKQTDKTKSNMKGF
Sequence of [CK1α]-[compound]-[CRBN/DDB1] ternary complex (Q96SW2 whole entry): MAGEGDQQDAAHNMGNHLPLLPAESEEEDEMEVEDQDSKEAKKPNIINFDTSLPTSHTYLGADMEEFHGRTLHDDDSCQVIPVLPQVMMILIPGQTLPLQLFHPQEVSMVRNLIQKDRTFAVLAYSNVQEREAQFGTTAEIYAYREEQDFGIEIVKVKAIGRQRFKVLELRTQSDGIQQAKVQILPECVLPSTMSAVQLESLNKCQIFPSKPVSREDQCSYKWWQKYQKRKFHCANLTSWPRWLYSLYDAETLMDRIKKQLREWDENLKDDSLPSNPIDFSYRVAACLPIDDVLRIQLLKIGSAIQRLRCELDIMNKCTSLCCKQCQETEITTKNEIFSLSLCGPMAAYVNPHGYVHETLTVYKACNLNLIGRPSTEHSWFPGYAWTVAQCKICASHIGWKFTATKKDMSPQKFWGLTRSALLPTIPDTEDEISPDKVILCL
Sequence of [CK1α]-[compound]-[CRBN/DDB1] ternary complex (Q16531 whole entry partner): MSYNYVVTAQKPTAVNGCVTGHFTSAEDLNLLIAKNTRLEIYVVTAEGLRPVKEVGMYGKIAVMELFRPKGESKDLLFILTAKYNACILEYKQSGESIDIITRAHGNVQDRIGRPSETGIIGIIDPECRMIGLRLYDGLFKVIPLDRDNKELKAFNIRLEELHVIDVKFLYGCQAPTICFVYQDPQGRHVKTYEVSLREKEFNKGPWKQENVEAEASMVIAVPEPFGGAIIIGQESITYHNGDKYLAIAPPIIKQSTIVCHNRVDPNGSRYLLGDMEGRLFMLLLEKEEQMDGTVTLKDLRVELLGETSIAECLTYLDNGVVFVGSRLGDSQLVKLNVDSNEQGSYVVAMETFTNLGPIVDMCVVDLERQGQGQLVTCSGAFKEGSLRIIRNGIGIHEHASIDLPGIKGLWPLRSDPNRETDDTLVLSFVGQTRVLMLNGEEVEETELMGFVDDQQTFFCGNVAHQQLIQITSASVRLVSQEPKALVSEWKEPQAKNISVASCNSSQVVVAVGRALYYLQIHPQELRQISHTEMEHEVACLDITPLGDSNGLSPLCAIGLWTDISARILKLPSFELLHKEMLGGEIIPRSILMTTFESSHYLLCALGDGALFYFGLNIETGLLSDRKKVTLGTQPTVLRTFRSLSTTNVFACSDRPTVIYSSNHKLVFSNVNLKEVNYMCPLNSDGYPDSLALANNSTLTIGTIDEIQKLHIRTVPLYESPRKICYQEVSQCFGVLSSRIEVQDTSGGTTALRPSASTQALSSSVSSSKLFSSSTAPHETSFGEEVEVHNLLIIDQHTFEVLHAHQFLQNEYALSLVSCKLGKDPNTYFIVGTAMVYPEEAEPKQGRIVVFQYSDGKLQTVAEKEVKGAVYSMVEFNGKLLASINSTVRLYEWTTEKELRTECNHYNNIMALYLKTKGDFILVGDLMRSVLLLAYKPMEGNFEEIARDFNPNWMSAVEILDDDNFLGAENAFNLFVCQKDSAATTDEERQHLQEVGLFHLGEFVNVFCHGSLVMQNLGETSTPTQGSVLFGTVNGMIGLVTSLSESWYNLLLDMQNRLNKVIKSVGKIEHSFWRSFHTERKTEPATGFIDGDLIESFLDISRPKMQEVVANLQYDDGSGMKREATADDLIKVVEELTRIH
T3 sequence (Q9UJQ4 410-432 limits assumed): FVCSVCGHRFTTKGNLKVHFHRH
T3 sequence (Q96SW2 whole entry): as the sequence (Q96SW2 whole entry) above
T3 sequence (Q16531 whole entry partner): as the sequence (Q16531 whole entry partner) above
Sequence of [GSPT1]-[compound of formula (I)]-[CRBN/DDB1] complex (P15170 whole entry): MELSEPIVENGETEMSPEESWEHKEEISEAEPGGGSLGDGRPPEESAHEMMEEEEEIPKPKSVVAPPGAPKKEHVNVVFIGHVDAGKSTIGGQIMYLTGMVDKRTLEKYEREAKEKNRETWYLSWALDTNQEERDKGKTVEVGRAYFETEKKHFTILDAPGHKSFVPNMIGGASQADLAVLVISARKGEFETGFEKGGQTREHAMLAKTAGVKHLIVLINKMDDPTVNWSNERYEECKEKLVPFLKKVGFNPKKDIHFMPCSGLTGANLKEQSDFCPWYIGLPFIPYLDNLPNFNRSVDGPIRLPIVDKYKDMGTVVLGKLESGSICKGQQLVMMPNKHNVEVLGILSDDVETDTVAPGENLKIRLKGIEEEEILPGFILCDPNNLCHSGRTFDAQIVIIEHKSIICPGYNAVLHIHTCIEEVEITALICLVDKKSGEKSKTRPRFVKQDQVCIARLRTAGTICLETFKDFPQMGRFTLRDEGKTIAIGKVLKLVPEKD
Sequence of [GSPT1]-[compound of formula (I)]-[CRBN/DDB1] complex (Q96SW2 whole entry): as the sequence (Q96SW2 whole entry) above
Sequence of [GSPT1]-[compound of formula (I)]-[CRBN/DDB1] complex (Q16531 whole entry partner): as the sequence (Q16531 whole entry partner) above
T1 sequence (Q13422 145-167 limits assumed): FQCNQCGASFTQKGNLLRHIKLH
T1 sequence (Q96SW2 whole entry): as the sequence (Q96SW2 whole entry) above
T1 sequence (Q16531 whole entry partner): as the sequence (Q16531 whole entry partner) above
Sequence of CRBN/DDB1 protein complex (Q96SW2 whole entry, species assumed): as the sequence (Q96SW2 whole entry) above
Sequence of CRBN/DDB1 protein complex (Q16531 whole entry partner, species assumed): as the sequence (Q16531 whole entry partner) above
T2 sequence (Q9UKS7 140-162 limits assumed): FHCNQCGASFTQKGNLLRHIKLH
T2 sequence (Q96SW2 whole entry): as the sequence (Q96SW2 whole entry) above
T2 sequence (Q16531 whole entry partner): as the sequence (Q16531 whole entry partner) above

Turning to `Cc1ccc(NC(=S)NCc2ccc3cc(C4CCC(=O)NC4=O)c(C)nc3c2)cc1Cl` (stereo not drawn) [Compound 2, 1-(3-chloro-4-methylphenyl)-3-((3-(2,6-dioxopiperidin-3-yl)-2-methylquinolin-7-yl)methyl)thiourea], the activation at 1 µM is below 10% in assay [1]; below 10% in assay [2]; below 10% in assay [4]; 10 to 50% in assay [5]; below 10% in assay [6]. In addition, the pKi (commonly the Ki on a negative log10 scale, so that one unit is a factor of ten) in assay [3] is 6.00 to 6.30.
As for `Cc1ccc(NC(=O)OCc2ccc3cc(C4CCC(=O)NC4=O)c(C)nc3c2)cc1Cl` (stereo not drawn) [Compound 4, (3-(2,6-dioxopiperidin-3-yl)-2-methylquinolin-7-yl)methyl (3-chloro-4-methylphenyl)carbamate], the activation at 1 µM in assay [1] is below 10%; in assay [2], below 10%; in assay [4] it was below 10%; in assay [5], above 50%; in assay [6], below 10%. For the same molecule, the pKi in assay [3] was 6.00 to 6.30.
Consider `Cc1ccc(NC(=O)OCc2ccc3nc(C)c(C4CCC(=O)NC4=O)cc3c2)cc1Cl` (stereo not drawn) [Compound 5, (3-(2,6-dioxopiperidin-3-yl)-2-methylquinolin-6-yl)methyl (3-chloro-4-methylphenyl)carbamate], for which the activation at 1 µM in assay [1] was 25 to 50%; in assay [2], 10 to 25%; in assay [4], 25 to 50%; in assay [5], above 50%; in assay [6] it was below 10%. For the same molecule, the pKi in assay [3] was above 6.30.
Consider `Cc1nc2cc(COC(=O)Nc3cc(OC(F)(F)F)ccc3F)ccc2cc1C1CCC(=O)NC1=O` (stereo not drawn) [Compound 6, (3-(2,6-dioxopiperidin-3-yl)-2-methylquinolin-7-yl)methyl (2-fluoro-5-(trifluoromethoxy)phenyl)carbamate], for which the activation at 1 µM in assay [1] is below 10%; in assay [2], below 10%; in assay [4], below 10%; in assay [5], 10 to 50%; in assay [6], below 10%. Besides, the pKi in assay [3] was below 6.00.
With `Cc1nc2cc(COC(=O)Nc3ccc(C(C)(C)C)cc3)ccc2cc1C1CCC(=O)NC1=O` (stereo not drawn) [Compound 8, (3-(2,6-dioxopiperidin-3-yl)-2-methylquinolin-7-yl)methyl (4-(tert-butyl)phenyl)carbamate], the activation at 1 µM in assay [1] is below 10%; in assay [2], below 10%; in assay [4], below 10%; in assay [5], above 50%; in assay [6], below 10%. Besides, the negative-log Ki (pKi) in assay [3] was above 6.30.
In the case of `Cc1nc2cc(COC(=O)Nc3cccc(C(C)(C)C)c3)ccc2cc1C1CCC(=O)NC1=O` (stereo not drawn) [Compound 9, (3-(2,6-dioxopiperidin-3-yl)-2-methylquinolin-7-yl)methyl (3-(tert-butyl)phenyl)carbamate], the activation at 1 µM in assay [1] is below 10%; in assay [2] it was below 10%; in assay [4], below 10%; in assay [5], 10 to 50%; in assay [6], below 10%. For the same molecule, the pKi in assay [3] was below 6.00.
As to `Cc1nc2cc(COC(=O)Nc3ccc(C(C)(C)C)c(Cl)c3)ccc2cc1C1CCC(=O)NC1=O` (stereo not drawn) [Compound 10, (3-(2,6-dioxopiperidin-3-yl)-2-methylquinolin-7-yl)methyl (4-(tert-butyl)-3-chlorophenyl)carbamate], the activation at 1 µM was below 10% in assay [1]; below 10% in assay [2]; below 10% in assay [4]; 10 to 50% in assay [5]; below 10% in assay [6]. Moreover, the pKi in assay [3] was above 6.30.
Consider `COc1ccc(NC(=O)OCc2ccc3cc(C4CCC(=O)NC4=O)c(C)nc3c2)cc1Cl` (stereo not drawn) [Compound 11, (3-(2,6-dioxopiperidin-3-yl)-2-methylquinolin-7-yl)methyl (3-chloro-4-methoxyphenyl)carbamate], for which the activation at 1 µM in assay [1] is below 10%; in assay [2], below 10%; in assay [4], below 10%; in assay [5] it was above 50%; in assay [6] it was below 10%. Also, in assay [3], the pKi was below 6.00.
Turning to `Cc1nc2cc(COC(=O)Nc3ccc(Cl)c(Cl)c3)ccc2cc1C1CCC(=O)NC1=O` (stereo not drawn) [Compound 12, (3-(2,6-dioxopiperidin-3-yl)-2-methylquinolin-7-yl)methyl (3,4-dichlorophenyl)carbamate], the activation at 1 µM in assay [1] is below 10%; in assay [2] it was below 10%; in assay [4], below 10%; in assay [5] it was 10 to 50%; in assay [6] it was below 10%. Further, the pKi in assay [3] is below 6.00.
In the case of `Cc1nc2cc(COC(=O)Nc3ccc4c(c3)OCO4)ccc2cc1C1CCC(=O)NC1=O` (stereo not drawn) [Compound 14, (3-(2,6-dioxopiperidin-3-yl)-2-methylquinolin-7-yl)methyl benzo[d][1,3]dioxol-5-ylcarbamate], the activation at 1 µM in assay [1] is below 10%; in assay [2], below 10%; in assay [4], below 10%; in assay [5], 10 to 50%; in assay [6], below 10%. In addition, in assay [3], the pKi is below 6.00.
As to `Cc1nc2cc(COC(=O)Nc3ccc4c(c3)OCCO4)ccc2cc1C1CCC(=O)NC1=O` (stereo not drawn) [Compound 15, (3-(2,6-dioxopiperidin-3-yl)-2-methylquinolin-7-yl)methyl (2,3-dihydrobenzo[b][1,4]dioxin-6-yl)carbamate], the activation at 1 µM in assay [1] is below 10%; in assay [2] it was below 10%; in assay [4] it was below 10%; in assay [5], 10 to 50%; in assay [6], below 10%. The pKi in assay [3] is below 6.00.
`Cc1nc2cc(COC(=O)Nc3cc(Cl)c(C)c(CN4CCOCC4)c3)ccc2cc1C1CCC(=O)NC1=O` (stereo not drawn) [Compound 17, (3-(2,6-dioxopiperidin-3-yl)-2-methylquinolin-7-yl)methyl (3-chloro-4-methyl-5-(morpholinomethyl)phenyl)carbamate]: the activation at 1 µM in assay [1] is below 10%; in assay [2], below 10%; in assay [4], below 10%; in assay [5], 10 to 50%; in assay [6], below 10%. In addition, the pKi in assay [3] was above 6.30.
